For one experiment, the target named is T1, Aβ42 (Homo sapiens, UniProt P05067).
T1 construct: purchased Peptide Institute, Inc. (Osaka, Japan)
Kind of experiment: Aβ42 aggregation inhibition experiments (gel/western blot, TEM). The format is biochemical. Particulars: flavonoid 50 μM, 24 h. The protocol:
(§1) To verify whether a series of nine flavonoids can modulate the aggregation of Aβ with and without metal ions, the molecular weight (MW) distribution and morphology of the resultant Aβ species were determined by gel electrophoresis with western blotting (gel/western blot) using an anti-Aβ antibody (6E10) and transmission electron microscopy (TEM), respectively. Two types of experiments were carried out employing two major Aβ isoforms, i.e., Aβ42 and Aβ40:[25] (i) inhibition studies to identify the effect of 1–5, 1a, 1b, 4a, and 4b on the formation of Aβ aggregates; (ii) disaggregation studies to evaluate if the flavonoids with reactivities towards Aβ aggregation in inhibition studies can disassemble preformed Aβ aggregates or modulate their further aggregation, as illustrated in Fig. 4 and S5–S9. ^† Moreover, the solutions containing the flavonoids and Cu(II) were probed by electronic absorption (Abs) spectroscopy to monitor their metal binding. […] As expected, no Abs change of 1a and 4a composed of methoxy groups on the A ring was detected by addition of Cu(II). […]
(§2) Ab Aggregation Experiments. Ab was dissolved in ammonium hydroxide [1% w/w NH4OH (aq)] and the resulting solution was aliquoted, lyophilized overnight, and stored at –80 °C. A stock solution of Ab was then prepared by dissolving the lyophilized peptide with NH4OH (1% w/w, aq; 10 µL) and diluting with ddH2O. All Ab samples were prepared following previously reported procedures.21,22 The concentration of the peptide solution was determined by measuring its […]
(§3) solution (20 mM HEPES, pH 7.4, 150 mM NaCl) was used for preparing Ab samples. For the inhibition studies, flavonoids (final concentration, 50 µM; 1% v/v DMSO) were added to the samples of Ab (25 µM) in the absence and presence of CuCl2 or ZnCl2 (25 µM) followed by incubation for 24 h at 37 °C with constant agitation. For the disaggregation studies, Ab (25 µM) was incubated with and without CuCl2 or ZnCl2 (25 µM) for 24 h at 37 °C with constant agitation to generate preformed Ab aggregates. The resultant Ab aggregates were then treated with flavonoids (50 µM) and incubated for additional 24 h with constant agitation. For the additional disaggregation experiments, preformed Ab42 aggregates (25 µM) or Ab42 seeds (10% v/v) with or without metal ions (25 µM for CuCl2 and ZnCl2) were incubated with flavonoids (50 µM) for 24 h with constant agitation. The resultant Ab aggregates were then treated with freshly prepared Ab42 […]
(25 µM) and incubated for additional 24 h with constant agitation.
Gel/Western Blot. The resultant Ab species from the aggregation experiments were analyzed by gel/Western blot using an anti-Ab antibody (6E10, Covance, Princeton, NJ, USA).21,22 Each sample (10 µL) was separated on a 10–20% tricine gel (Invitrogen). Following separation, the proteins were transferred onto nitrocellulose membranes and blocked with bovine serum albumin (BSA, 3% w/v; Sigma-Aldrich) in Tris-buffered saline (TBS) containing 0.1% v/v Tween-20 (Sigma-Aldrich) (TBS-T) for 4 h at room temperature or overnight at 4 °C. The membranes were incubated with 6E10 (1:2,000) in the solution of BSA (2% w/v in TBS-T) for 4 h at room temperature. […] A homemade ECL kit21–23 was used to visualize gel/Western blots on a ChemiDoc MP Imaging System (Bio-Rad).
TEM. Samples for TEM were prepared following previously reported methods.22,24 Glow-discharged grids (Formvar/Carbon 300-mesh; Electron Microscopy Sciences, Hatfield, PA, USA) were treated with Ab samples (25 µM; 7.5 µL) for 2 min at room temperature. Excess sample was removed using filter paper followed by washing with ddH2O (3x). Each grid incubated with uranyl […]
On the technique in general: In western blotting, separated proteins are transferred to a membrane and probed.

Experiment [1] deals with preformed Aβ42 and Aβ40 aggregates. In words: Disaggregation experiments with preformed Aβ aggregates. The format is biochemical. Particulars: Aβ42 and Aβ40, with and without Cu(II), Zn(II); flavonoid 50 μM; 24 h. The protocol:
as §1, §2
as §3, with “agitation.” for “agitation. For the additional disaggregation experiments, preformed Ab42 aggregates (25 µM) or Ab42 seeds (10% v/v) with or without metal ions (25 µM for CuCl2 and ZnCl2) were incubated with flavonoids (50 µM) for 24 h with constant agitation. The resultant Ab aggregates were then treated with freshly prepared Ab42”

[2] abbreviates: Zn(II)–Aβ42, Aβ 25 μM, Zn(II) 25 μM.
[3] abbreviates: Cu(II)–Aβ42, Aβ 25 μM, Cu(II) 25 μM.

SMILES strings stand for the structures.

T1 sequence (P05067 672-713 limits assumed): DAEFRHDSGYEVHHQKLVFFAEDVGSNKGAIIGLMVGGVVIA

For `O=c1c(-c2ccccc2)coc2cc(O)c(O)c(O)c12` [4b, 5,6,7-trihydroxyisoflavone], the “morphology of resultant aggregates (TEM)” value at Aβ42 (Cu(II)–Aβ42) is “chopped and thin fibrils”; on Aβ42 (Zn(II)–Aβ42), “small amorphous aggregates”; on Aβ42 (metal-free Aβ42), “smaller fibrils and less structured aggregates”. In addition, the “MW distribution of resultant species (gel/western blot)” value (“MW distribution … (gel/western blot)” below) is given as “smearing bands at ca. 25–240 kDa” on Aβ42 (setting [2]) and “discernably reduced the signal intensity of the bands” at Aβ42 (metal-free Aβ42 25 μM, 37 °C). The “effect on preformed metal-free Aβ and metal–Aβ aggregates” value in experiment [1] was “could disassemble preformed metal-free Aβ and metal–Aβ aggregates”.

On to `O=c1cc(-c2ccccc2)oc2cc(O)cc(O)c12` [compound 1, chrysin], for which the “morphology of resultant aggregates (TEM)” value at Aβ42 (Cu(II)–Aβ42) and on Aβ42 (Zn(II)–Aβ42) was “did not indicate any noticeable morphological changes” in each case. The “MW distribution … (gel/western blot)” value at Aβ42 (setting [2]) is “a significant change in the MW distribution was not indicated”. The “effect on preformed metal-free Aβ and metal–Aβ aggregates” value in experiment [1] is recorded as “less noticeably affected”.

Turning to `O=c1cc(-c2ccccc2)oc2cc(O)c(O)cc12` [compound 2, 6,7-dihydroxyflavone], the “morphology of resultant aggregates (TEM)” value at Aβ42 (Cu(II)–Aβ42) and on Aβ42 (Zn(II)–Aβ42) was “did not indicate any noticeable morphological changes” each time. Moreover, at Aβ42 (setting [2]), the “MW distribution … (gel/western blot)” value is reported as “a significant change in the MW distribution was not indicated”. Besides, the “effect on preformed metal-free Aβ and metal–Aβ aggregates” value in experiment [1] is “less noticeably affected”.

Consider `O=c1cc(-c2ccccc2)oc2ccc(O)c(O)c12` [compound 3, 5,6-dihydroxyflavone], for which the “MW distribution … (gel/western blot)” value on Aβ42 (setting [3]) is on record as “more intense smearing”; at Aβ42 (setting [2]) it was “increased signal intensity between ca. 25–75 kDa”. Also, the “morphology of resultant aggregates (TEM)” value was “A mixture of amorphous and small fibrillary aggregates” at Aβ42 (Cu(II)–Aβ42); “small amorphous aggregates” on Aβ42 (Zn(II)–Aβ42). Also, the “effect on preformed metal-free Aβ and metal–Aβ aggregates” value in experiment [1] was “the reactivity was shown only in the presence of metal ions”.

As to `O=c1cc(-c2ccccc2)oc2cc(O)c(O)c(O)c12` [compound 4, baicalein], the “MW distribution … (gel/western blot)” value at Aβ42 (setting [3]) is recorded as “enhanced level of dodecameric or larger Aβ42 aggregates”; on Aβ42 (setting [2]) it was “smearing bands at ca. 25–240 kDa”; on Aβ42 (metal-free Aβ42 25 μM, 37 °C), “discernably reduced the signal intensity of the bands”. Further, the “morphology of resultant aggregates (TEM)” value is “chopped and thin fibrils” on Aβ42 (Cu(II)–Aβ42); “chopped fibrils and amorphous assemblies” on Aβ42 (Zn(II)–Aβ42); “shorter and thinner fibrils” at Aβ42 (metal-free Aβ42). Besides, in experiment [1], the “effect on preformed metal-free Aβ and metal–Aβ aggregates” value was “could disassemble preformed metal-free Aβ and metal–Aβ aggregates”.

As to `O=c1cc(-c2ccccc2)oc2c(Cl)c(O)c(O)c(O)c12` [compound 5, 8-chlorobaicalein], the “morphology of resultant aggregates (TEM)” value was “A mixture of amorphous and small fibrillary aggregates” on Aβ42 (Cu(II)–Aβ42); “both amorphous and fibrillary Zn(II)–Aβ42 aggregates” at Aβ42 (Zn(II)–Aβ42); “smaller fibrils and less structured aggregates” at Aβ42 (metal-free Aβ42). For the same molecule, the “MW distribution … (gel/western blot)” value on Aβ42 (setting [2]) was “smearing bands at ca. 25–240 kDa”; on Aβ42 (metal-free Aβ42 25 μM, 37 °C), “discernably reduced the signal intensity of the bands”. Moreover, in experiment [1], the “effect on preformed metal-free Aβ and metal–Aβ aggregates” value was “could disassemble preformed metal-free Aβ and metal–Aβ aggregates”.

With `O=c1c(-c2ccc(O)c(O)c2)coc2cc(O)c(O)c(O)c12` [compound 6, 3-(3,4-dihydroxyphenyl)-5,6,7-trihydroxy-4H-chromen-4-one], the “MW distribution … (gel/western blot)” value was “smearing bands from ca. 20–240 kDa were noticeably detected” on Aβ42 (setting [3]); “smearing bands from ca. 20–240 kDa were noticeably detected” on Aβ42 (setting [2]); “reduced at ca. 4–20 kDa and above ca. 100 kDa” at Aβ42 (metal-free Aβ42 25 μM, 37 °C). Also, the “morphology of resultant aggregates (TEM)” value at Aβ42 (Cu(II)–Aβ42) is “chopped fibrils”; on Aβ42 (Zn(II)–Aβ42), “a mixture of amorphous and fibrillary aggregates”; at Aβ42 (metal-free Aβ42) it was “shorter and thinner fibrils”. The “effect on preformed metal-free Aβ and metal–Aβ aggregates” value in experiment [1] is “affected their corresponding preformed Aβ aggregates and seeds”.

These data come from article PMC10498667 (Chemical Science, 2023).
